ChEMBL document CHEMBL4507283, “Data for DCP probe BI-1935” (2021)

Tests used:
[1] = target: Sodium-dependent serotonin transporter (Homo sapiens) (UniProt P31645); assay: 5HTTRANS/HU Eurofins-Panlabs selectivity data (BI); details: Compound concentration 10.0 uM
[2] = target: Voltage-dependent L-type calcium channel subunit alpha-1C (phenylalkylamine site) (Rattus norvegicus, UniProt P22002); assay: CA+/PAASITE Eurofins-Panlabs selectivity data (BI); details: compound concentration 10 uM, read-out: % Ctrl
Chain of Voltage-dependent L-type calcium channel subunit alpha-1C (phenylalkylamine site) (P22002 whole entry): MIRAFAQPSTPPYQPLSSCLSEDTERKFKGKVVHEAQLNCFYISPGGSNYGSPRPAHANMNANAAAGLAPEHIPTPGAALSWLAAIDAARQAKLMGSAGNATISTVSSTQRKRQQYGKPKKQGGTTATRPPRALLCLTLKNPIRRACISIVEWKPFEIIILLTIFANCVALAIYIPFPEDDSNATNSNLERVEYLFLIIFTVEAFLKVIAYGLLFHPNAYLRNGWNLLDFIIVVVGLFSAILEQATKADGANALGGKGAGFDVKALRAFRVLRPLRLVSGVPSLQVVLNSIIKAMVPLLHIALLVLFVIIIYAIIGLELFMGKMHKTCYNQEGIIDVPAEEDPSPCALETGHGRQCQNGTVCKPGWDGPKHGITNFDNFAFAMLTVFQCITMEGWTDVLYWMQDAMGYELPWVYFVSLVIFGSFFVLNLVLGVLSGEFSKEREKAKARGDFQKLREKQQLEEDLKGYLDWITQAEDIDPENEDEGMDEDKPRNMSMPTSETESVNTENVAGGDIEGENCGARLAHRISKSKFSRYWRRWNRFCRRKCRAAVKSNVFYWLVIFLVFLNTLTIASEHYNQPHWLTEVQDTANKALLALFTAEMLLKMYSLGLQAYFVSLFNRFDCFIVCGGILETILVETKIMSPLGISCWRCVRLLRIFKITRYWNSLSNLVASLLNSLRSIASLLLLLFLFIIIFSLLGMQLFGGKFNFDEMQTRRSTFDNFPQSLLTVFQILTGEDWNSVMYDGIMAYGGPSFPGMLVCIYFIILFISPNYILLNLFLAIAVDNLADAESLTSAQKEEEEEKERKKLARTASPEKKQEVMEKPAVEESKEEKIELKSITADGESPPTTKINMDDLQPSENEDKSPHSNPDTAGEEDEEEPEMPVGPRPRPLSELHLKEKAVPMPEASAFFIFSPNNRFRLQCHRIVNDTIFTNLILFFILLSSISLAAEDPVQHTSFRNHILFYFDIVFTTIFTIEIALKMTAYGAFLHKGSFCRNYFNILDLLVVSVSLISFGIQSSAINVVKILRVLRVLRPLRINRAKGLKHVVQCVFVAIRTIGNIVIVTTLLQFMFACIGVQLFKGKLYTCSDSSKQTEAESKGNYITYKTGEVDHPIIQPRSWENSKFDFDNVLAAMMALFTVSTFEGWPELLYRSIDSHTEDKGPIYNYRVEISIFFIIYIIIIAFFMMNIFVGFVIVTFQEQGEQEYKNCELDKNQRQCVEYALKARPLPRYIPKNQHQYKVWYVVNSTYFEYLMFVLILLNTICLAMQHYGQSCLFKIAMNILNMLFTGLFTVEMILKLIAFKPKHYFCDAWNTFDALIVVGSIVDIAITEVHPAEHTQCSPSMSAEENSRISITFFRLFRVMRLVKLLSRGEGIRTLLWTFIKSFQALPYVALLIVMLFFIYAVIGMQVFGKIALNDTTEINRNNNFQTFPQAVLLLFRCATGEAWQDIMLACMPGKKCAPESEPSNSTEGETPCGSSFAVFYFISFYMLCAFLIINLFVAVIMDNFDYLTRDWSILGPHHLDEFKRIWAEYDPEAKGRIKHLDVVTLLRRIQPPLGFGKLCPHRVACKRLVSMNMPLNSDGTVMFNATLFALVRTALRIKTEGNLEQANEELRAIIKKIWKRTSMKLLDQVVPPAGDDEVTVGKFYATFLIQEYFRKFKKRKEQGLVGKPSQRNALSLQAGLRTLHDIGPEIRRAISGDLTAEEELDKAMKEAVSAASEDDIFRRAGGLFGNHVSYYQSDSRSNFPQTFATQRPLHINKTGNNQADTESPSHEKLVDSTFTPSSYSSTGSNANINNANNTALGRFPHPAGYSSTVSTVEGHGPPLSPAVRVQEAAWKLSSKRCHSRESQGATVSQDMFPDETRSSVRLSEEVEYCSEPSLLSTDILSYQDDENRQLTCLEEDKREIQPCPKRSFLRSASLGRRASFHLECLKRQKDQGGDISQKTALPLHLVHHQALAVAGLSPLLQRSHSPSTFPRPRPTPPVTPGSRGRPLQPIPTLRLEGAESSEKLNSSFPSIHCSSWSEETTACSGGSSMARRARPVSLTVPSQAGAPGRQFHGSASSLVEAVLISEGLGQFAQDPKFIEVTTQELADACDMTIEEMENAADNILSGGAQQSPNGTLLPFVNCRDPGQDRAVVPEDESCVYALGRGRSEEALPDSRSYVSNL

[3] = target: Voltage-dependent L-type calcium channel subunit alpha-1C (Rattus norvegicus, UniProt P22002); assay: CA+/TLATATG Eurofins-Panlabs selectivity data (BI); set-up: species or system Cavia porcellus; mode of action antagonist; details: guinea pig, atrial tissue, read-out: % Ctrl
Chain of Voltage-dependent L-type calcium channel subunit alpha-1C (P22002 whole entry): as above

[4] = target: Cannabinoid receptor 1 (Homo sapiens) (UniProt P21554); assay: CB1/H Eurofins-Panlabs selectivity data (BI); details: Compound concentration 10.0 uM
[5] = target: Endothelin-1 receptor (Homo sapiens) (UniProt P25101); assay: ETA/HU Eurofins-Panlabs selectivity data (BI); details: Compound concentration 10.0 uM
Chain of Endothelin-1 receptor (Homo sapiens) (P25101 whole entry): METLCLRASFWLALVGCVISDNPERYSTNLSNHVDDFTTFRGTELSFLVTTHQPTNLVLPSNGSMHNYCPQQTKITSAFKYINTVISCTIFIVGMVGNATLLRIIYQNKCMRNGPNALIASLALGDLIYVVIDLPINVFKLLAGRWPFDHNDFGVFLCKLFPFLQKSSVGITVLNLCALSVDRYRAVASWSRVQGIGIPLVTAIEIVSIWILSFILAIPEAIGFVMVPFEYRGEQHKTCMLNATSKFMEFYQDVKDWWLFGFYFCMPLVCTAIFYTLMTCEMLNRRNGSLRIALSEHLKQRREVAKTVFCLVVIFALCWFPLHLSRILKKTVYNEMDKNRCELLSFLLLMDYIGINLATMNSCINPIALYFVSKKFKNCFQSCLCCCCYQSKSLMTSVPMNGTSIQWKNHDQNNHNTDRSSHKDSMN

[6] = target: Vasopressin V1a receptor (Homo sapiens) (UniProt P37288); assay: V1A/HU Eurofins-Panlabs selectivity data (BI); details: Compound concentration 10.0 uM
[7] = target: Activin receptor type-1-like (Homo sapiens) (UniProt P37023); details: Compound concentration 1000.0 nM
[8] = target: 5'-AMP-activated protein kinase catalytic subunit alpha-1 (Homo sapiens) (UniProt Q13131); details: Compound concentration 1000.0 nM
[9] = target: Aurora kinase B (Homo sapiens) (UniProt Q96GD4); details: Compound concentration 1000.0 nM
[10] = target: Calcium/calmodulin-dependent protein kinase type II subunit beta (Homo sapiens) (UniProt Q13554); details: Compound concentration 1000.0 nM
[11] = target: Calcium/calmodulin-dependent protein kinase type IV (Homo sapiens) (UniProt Q16566); details: Compound concentration 1000.0 nM
[12] = target: Calcium/calmodulin-dependent protein kinase kinase 1 (Homo sapiens) (UniProt Q8N5S9); details: Compound concentration 1000.0 nM
[13] = target: Cyclin-dependent kinase 5 (Homo sapiens) (UniProt Q00535); details: Compound concentration 1000.0 nM
[14] = target: Serine/threonine-protein kinase Chk1 (Homo sapiens) (UniProt O14757); details: Compound concentration 1000.0 nM
[15] = target: Epidermal growth factor receptor (Homo sapiens) (UniProt P00533); details: Compound concentration 1000.0 nM
[16] = system: Epidermal growth factor receptor (Homo sapiens), P00533 [UNDEFINED MUTATION]; details: Compound concentration 1000.0 nM
[17] = target: Ephrin type-A receptor 8 (Homo sapiens) (UniProt P29322); details: Compound concentration 1000.0 nM
[18] = target: Receptor tyrosine-protein kinase erbB-2 (Homo sapiens) (UniProt P04626); details: Compound concentration 1000.0 nM
[19] = system: Receptor-type tyrosine-protein kinase FLT3 (Homo sapiens), P36888 [D835V]; details: Compound concentration 1000.0 nM
[20] = target: Glycogen synthase kinase-3 beta (Homo sapiens) (UniProt P49841); details: Compound concentration 1000.0 nM
Chain of Glycogen synthase kinase-3 beta (Homo sapiens) (P49841 whole entry, looked up): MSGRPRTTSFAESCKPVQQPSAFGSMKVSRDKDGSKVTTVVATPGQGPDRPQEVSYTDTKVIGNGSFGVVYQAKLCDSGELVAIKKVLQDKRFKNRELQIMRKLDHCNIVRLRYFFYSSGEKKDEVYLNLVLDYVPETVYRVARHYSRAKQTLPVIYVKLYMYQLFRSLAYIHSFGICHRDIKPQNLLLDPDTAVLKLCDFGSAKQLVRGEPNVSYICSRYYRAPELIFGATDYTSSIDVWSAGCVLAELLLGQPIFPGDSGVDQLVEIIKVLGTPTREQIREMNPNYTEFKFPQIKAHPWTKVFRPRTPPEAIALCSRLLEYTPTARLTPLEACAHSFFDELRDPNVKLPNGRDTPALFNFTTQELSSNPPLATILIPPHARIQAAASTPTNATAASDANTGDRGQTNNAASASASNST

[21] = target: Insulin-like growth factor 1 receptor (Homo sapiens) (UniProt P08069); details: Compound concentration 1000.0 nM
[22] = target: Tyrosine-protein kinase JAK1 (Homo sapiens) (UniProt P23458); details: Compound concentration 1000.0 nM
[23] = target: LIM domain kinase 1 (Homo sapiens) (UniProt P53667); details: Compound concentration 1000.0 nM
Chain of LIM domain kinase 1 (Homo sapiens) (P53667 whole entry, looked up, the tested form may be a part): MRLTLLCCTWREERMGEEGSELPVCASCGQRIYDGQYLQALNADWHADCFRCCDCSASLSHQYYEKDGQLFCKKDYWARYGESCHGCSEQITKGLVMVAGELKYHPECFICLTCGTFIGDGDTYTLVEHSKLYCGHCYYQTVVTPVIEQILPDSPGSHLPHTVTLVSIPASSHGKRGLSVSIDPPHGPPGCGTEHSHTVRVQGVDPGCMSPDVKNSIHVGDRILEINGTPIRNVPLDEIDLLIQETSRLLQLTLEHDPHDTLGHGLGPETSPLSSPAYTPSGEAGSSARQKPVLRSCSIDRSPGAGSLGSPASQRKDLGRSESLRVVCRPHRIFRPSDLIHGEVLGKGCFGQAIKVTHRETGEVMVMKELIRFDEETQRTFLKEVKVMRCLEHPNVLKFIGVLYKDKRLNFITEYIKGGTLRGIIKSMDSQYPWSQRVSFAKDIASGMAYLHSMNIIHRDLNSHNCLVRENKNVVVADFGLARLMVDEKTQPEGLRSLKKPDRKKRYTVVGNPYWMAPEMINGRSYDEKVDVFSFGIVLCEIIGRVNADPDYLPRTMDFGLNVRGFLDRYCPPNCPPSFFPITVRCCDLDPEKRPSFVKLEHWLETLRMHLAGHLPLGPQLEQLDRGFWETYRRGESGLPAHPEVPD

[24] = target: Mitogen-activated protein kinase kinase kinase kinase 2 (Homo sapiens) (UniProt Q12851); details: Compound concentration 1000.0 nM
[25] = target: Serine/threonine-protein kinase MARK2 (Homo sapiens) (UniProt Q7KZI7); details: Compound concentration 1000.0 nM
[26] = target: Serine/threonine-protein kinase MRCK beta (Homo sapiens) (UniProt Q9Y5S2); details: Compound concentration 1000.0 nM
[27] = target: Serine/threonine-protein kinase 4 (Homo sapiens) (UniProt Q13043); details: Compound concentration 1000.0 nM
[28] = target: Macrophage-stimulating protein receptor (Homo sapiens) (UniProt Q04912); details: Compound concentration 1000.0 nM
[29] = target: Myosin light chain kinase 2, skeletal/cardiac muscle (Homo sapiens) (UniProt Q9H1R3); details: Compound concentration 1000.0 nM
[30] = target: Myosin-IIIa (Homo sapiens) (UniProt Q8NEV4); details: Compound concentration 1000.0 nM
[31] = target: Serine/threonine-protein kinase 38 (Homo sapiens) (UniProt Q15208); details: Compound concentration 1000.0 nM
[32] = target: Serine/threonine-protein kinase Nek9 (Homo sapiens) (UniProt Q8TD19); details: Compound concentration 1000.0 nM
[33] = target: Mitogen-activated protein kinase 12 (Homo sapiens) (UniProt P53778); details: Compound concentration 1000.0 nM
[34] = system: Phosphatidylinositol 4,5-bisphosphate 3-kinase catalytic subunit alpha isoform (Homo sapiens), P42336 [E542K]; details: Compound concentration 1000.0 nM
[35] = target: Phosphatidylinositol 4-phosphate 5-kinase type-1 gamma (Homo sapiens) (UniProt O60331); details: Compound concentration 1000.0 nM
Chain of Phosphatidylinositol 4-phosphate 5-kinase type-1 gamma (Homo sapiens) (O60331 whole entry): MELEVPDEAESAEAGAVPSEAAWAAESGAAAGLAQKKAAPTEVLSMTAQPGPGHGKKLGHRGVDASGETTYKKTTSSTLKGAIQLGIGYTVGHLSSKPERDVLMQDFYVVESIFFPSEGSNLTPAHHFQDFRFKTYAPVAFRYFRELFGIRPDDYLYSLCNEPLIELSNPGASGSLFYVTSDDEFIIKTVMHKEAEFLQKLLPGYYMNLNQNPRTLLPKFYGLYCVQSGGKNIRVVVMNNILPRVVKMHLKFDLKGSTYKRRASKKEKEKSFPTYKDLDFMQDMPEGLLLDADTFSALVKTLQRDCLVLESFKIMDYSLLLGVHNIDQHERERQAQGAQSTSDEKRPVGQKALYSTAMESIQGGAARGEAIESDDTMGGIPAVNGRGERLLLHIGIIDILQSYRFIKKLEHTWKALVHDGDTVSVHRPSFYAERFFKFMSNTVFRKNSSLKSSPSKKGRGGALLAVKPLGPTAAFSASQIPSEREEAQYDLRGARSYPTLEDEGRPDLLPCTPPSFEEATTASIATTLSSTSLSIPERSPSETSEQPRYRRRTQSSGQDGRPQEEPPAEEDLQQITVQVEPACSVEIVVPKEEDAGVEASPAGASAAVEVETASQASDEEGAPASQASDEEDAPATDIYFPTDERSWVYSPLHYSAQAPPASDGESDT

[36] = target: Serine/threonine-protein kinase N1 (Homo sapiens) (UniProt Q16512); details: Compound concentration 1000.0 nM
[37] = target: Protein kinase C theta type (Homo sapiens) (UniProt Q04759); details: Compound concentration 1000.0 nM
[38] = target: Ribosomal protein S6 kinase alpha-1 (Homo sapiens) (UniProt Q15418); details: Compound concentration 1000.0 nM
[39] = target: Serine/threonine-protein kinase SBK1 (Homo sapiens) (UniProt Q52WX2); details: Compound concentration 1000.0 nM
[40] = target: Serine/threonine-protein kinase Sgk3 (Homo sapiens) (UniProt Q96BR1); details: Compound concentration 1000.0 nM
Chain of Serine/threonine-protein kinase Sgk3 (Homo sapiens) (Q96BR1 whole entry): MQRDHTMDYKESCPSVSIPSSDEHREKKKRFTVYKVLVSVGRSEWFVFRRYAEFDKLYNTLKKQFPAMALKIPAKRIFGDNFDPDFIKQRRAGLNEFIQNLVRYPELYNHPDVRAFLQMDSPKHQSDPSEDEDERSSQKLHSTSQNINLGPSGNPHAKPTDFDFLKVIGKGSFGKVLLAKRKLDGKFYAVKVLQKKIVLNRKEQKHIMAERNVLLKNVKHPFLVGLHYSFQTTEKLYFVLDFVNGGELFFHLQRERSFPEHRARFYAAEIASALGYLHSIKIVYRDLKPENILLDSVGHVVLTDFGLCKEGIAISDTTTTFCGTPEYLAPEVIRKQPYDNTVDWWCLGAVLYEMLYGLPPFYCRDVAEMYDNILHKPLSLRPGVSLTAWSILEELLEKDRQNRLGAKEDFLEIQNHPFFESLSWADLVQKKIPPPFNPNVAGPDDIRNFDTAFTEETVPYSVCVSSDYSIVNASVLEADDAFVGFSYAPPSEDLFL

[41] = target: Proto-oncogene tyrosine-protein kinase Src (Homo sapiens) (UniProt P12931); details: Compound concentration 1000.0 nM
[42] = target: Serine/threonine-protein kinase tousled-like 1 (Homo sapiens) (UniProt Q9UKI8); details: Compound concentration 1000.0 nM
[43] = target: Vascular endothelial growth factor receptor 2 (Homo sapiens) (UniProt P35968); details: Compound concentration 1000.0 nM

SMILES: CCOCCn1cc(C(=O)Nc2ccc(-n3nc(-c4cccnc4)cc3C(F)(F)F)cn2)ccc1=O [BI 1935]
- residual activity [1]: 100%
- activity at 10 µM [2]: 88.5% (not active)
- activity at 1 µM ([3]; compound concentration 1 uM): 86% (not active)
- activity at 3 µM ([3]; compound concentration 3 uM): 68% (not active)
- activity at 10 µM ([3]; compound concentration 10 uM): 25%
- residual activity [4]: 81%
- residual activity [5]: 97%
- residual activity [6]: 98%
- residual activity [7]: 100%
- residual activity [8]: 100%
- residual activity [9]: 100%
- residual activity [10]: 90%
- residual activity [11]: 100%
- residual activity [12]: 100%
- residual activity [13]: 100%
- residual activity [14]: 76%
- residual activity [15]: 100%
- residual activity [16]: 100%
- residual activity [17]: 84%
- residual activity [18]: 100%
- residual activity [19]: 100%
- residual activity [20]: 86%
- residual activity [21]: 96%
- residual activity [22]: 100%
- residual activity [23]: 84%
- residual activity [24]: 76%
- residual activity [25]: 100%
- residual activity [26]: 89%
- residual activity [27]: 100%
- residual activity [28]: 100%
- residual activity [29]: 89%
- residual activity [30]: 100%
- residual activity [31]: 91%
- residual activity [32]: 100%
- residual activity [33]: 65%
- residual activity [34]: 100%
- residual activity [35]: 100%
- residual activity [36]: 76%
- residual activity [37]: 73%
- residual activity [38]: 99%
- residual activity [39]: 91%
- residual activity [40]: 65%
- residual activity [41]: 90%
- residual activity [42]: 100%
- residual activity [43]: 81%
